{"source": "patent US9247742B2", "about": "(priority 2012, dated 2016)", "key": {"Magnaporthe oryzae [1]": {"tested_on": "Magnaporthe oryzae", "assay_type": "in vivo", "conditions": "1-day protective; for B % DC: component B alone; for A % DC: component A (777) alone"}, "Magnaporthe oryzae [2]": {"tested_on": "Magnaporthe oryzae", "assay_type": "in vivo", "conditions": "1-day curative/protective; for B % DC: component B alone; for A % DC: component A (777) alone"}}, "note": "Like-named read-outs stand apart in the source and are kept apart here."}
{"smiles": "CO/C=C(/C(=O)OC)c1ccccc1Oc1cc(Oc2ccccc2C#N)ncn1", "note": "[Azoxystrobin, methyl (αE)-2-[[6-(2-cyanophenoxy)-4-pyrimidinyl]oxy]-α-(methoxymethylene)benzeneacetate]", "values": [{"measurement": "B % DC", "setting": "Magnaporthe oryzae [1]; Rate B 0.025 ai ppm", "value": 9, "unit": "%"}, {"measurement": "B % DC", "setting": "Magnaporthe oryzae [1]; Rate B 0.1 ai ppm", "value": 19, "unit": "%"}, {"measurement": "B % DC", "setting": "Magnaporthe oryzae [1]; Rate B 0.4 ai ppm", "value": 30, "unit": "%"}, {"measurement": "B % DC", "setting": "Magnaporthe oryzae [1]; Rate B 1.56 ai ppm", "value": 0, "unit": "%"}]}
{"smiles": "C[C@H]1O[C@H](O[C@H]2[C@H](O)[C@@H](O)[C@@H](O)[C@H](O)[C@@H]2O)[C@@H](N)C[C@@H]1NC(=N)C(=O)O", "note": "[Kasugamycin, 3-O-[2-amino-4-[(carboxylminomethyl)amino]-2,3,4,6-tetradeoxy-α-D-arabino-hexopyranosyl]-D-chiro-inositol]", "values": [{"measurement": "B % DC", "setting": "Magnaporthe oryzae [2]; Rate B 1.56 ai/ppm", "value": 69, "unit": "%"}, {"measurement": "B % DC", "setting": "Magnaporthe oryzae [2]; Rate B 6.25 ai/ppm", "value": 68, "unit": "%"}, {"measurement": "B % DC", "setting": "Magnaporthe oryzae [2]; Rate B 25 ai/ppm", "value": 74, "unit": "%"}]}
{"smiles": "CCC1(C(=O)NC(C)c2ccc(Cl)cc2)C(C)C1(Cl)Cl", "note": "(stereo not drawn) [Carpropamid, 2,2-dichloro-N-[1-(4-chlorophenyl)ethyl]-1-ethyl-3-methylcyclopropanecarboxamide]", "values": [{"measurement": "B % DC", "setting": "Magnaporthe oryzae [1]; Rate B 0.1 ai ppm", "value": 2, "unit": "%"}, {"measurement": "B % DC", "setting": "Magnaporthe oryzae [1]; Rate B 0.4 ai ppm", "value": 23, "unit": "%"}]}
{"smiles": "C=CCOC1=NS(=O)(=O)c2ccccc21", "note": "[Probenazole, 3-(2-propenyloxy)-1,2-benzisothiazole 1,1-dioxide]", "values": [{"measurement": "B % DC", "setting": "Magnaporthe oryzae [2]; Rate B 3.12 ai/ppm", "value": 69, "unit": "%"}, {"measurement": "B % DC", "setting": "Magnaporthe oryzae [2]; Rate B 12.5 ai/ppm", "value": 78, "unit": "%"}]}
{"smiles": "O=C(Nc1ccccc1-c1ccc(Cl)cc1)c1cccnc1Cl", "note": "[Boscalid, 2-chloro-N-(4′-chloro[1,1′-biphenyl]-2-yl)-3-pyridinecarboxamide]", "values": [{"measurement": "B % DC", "setting": "Magnaporthe oryzae [2]; Rate B 400 ai/ppm", "value": 69, "unit": "%"}]}
{"smiles": "Cc1cccc2sc3nncn3c12", "note": "[Tricyclazole, 5-methyl-1,2,4-triazolo[3,4-b]benzothiazole]", "values": [{"measurement": "B % DC", "setting": "Magnaporthe oryzae [2]; Rate B 0.1 ai/ppm", "value": 71, "unit": "%"}, {"measurement": "B % DC", "setting": "Magnaporthe oryzae [1]; Rate B 0.025 ai ppm", "value": 0, "unit": "%"}, {"measurement": "B % DC", "setting": "Magnaporthe oryzae [1]; Rate B 0.1 ai ppm", "value": 0, "unit": "%"}, {"measurement": "B % DC", "setting": "Magnaporthe oryzae [1]; Rate B 0.4 ai ppm", "value": 23, "unit": "%"}]}
{"smiles": "COc1ccnc(C(=O)N[C@H]2COC(=O)[C@H](Cc3ccccc3)[C@@H](OC(=O)C(C)C)[C@H](C)OC2=O)c1OCOC(=O)C(C)C", "note": "[compound 777]", "values": [{"measurement": "A % DC", "setting": "Magnaporthe oryzae [2]; Rate A 0.1 ai/ppm", "value": 28, "unit": "%"}, {"measurement": "A % DC", "setting": "Magnaporthe oryzae [2]; Rate A 0.4 ai/ppm", "value": 50, "unit": "%"}, {"measurement": "A % DC", "setting": "Magnaporthe oryzae [2]; Rate A 1.56 ai/ppm", "value": 67, "unit": "%"}, {"measurement": "A % DC", "setting": "Magnaporthe oryzae [2]; Rate A 6.25 ai/ppm", "value": 81, "unit": "%"}, {"measurement": "A % DC", "setting": "Magnaporthe oryzae [1]; Rate A 0.025 ai ppm", "value": 0, "unit": "%"}, {"measurement": "A % DC", "setting": "Magnaporthe oryzae [1]; Rate A 0.1 ai ppm", "value": 21, "unit": "%"}, {"measurement": "A % DC", "setting": "Magnaporthe oryzae [1]; Rate A 0.25 ai ppm", "value": 0, "unit": "%"}, {"measurement": "A % DC", "setting": "Magnaporthe oryzae [1]; Rate A 0.4 ai ppm", "value": 61, "unit": "%"}]}
